Assay [1] concerns dextran sodium sulfate-induced chronic inflammatory bowel disease. The conditions noted are these: mouse; once-daily doses of 3 and 10 mg/kg; cited from earlier work.
A further assay has as its target T1, human GPR84 receptor (Homo sapiens, UniProt Q9NQS5).
T1 construct: host or cells: HEK293, transiently transfected
Put plainly: Gαi biosensor BRET assay (GPR84 antagonism vs agonist ZQ-16). In kind it is cell-based. The conditions noted are these: HEK293 cells, 200 nmol/L agonist ZQ-16; for inhibition at 2 µM: tested at 2 μM (concentration code A); for IC50: Gαi biosensor BRET assay; for inhibition at 10 µM: tested at 10 μM (concentration code D). The method, boiled down: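 HEK293 cells transiently expressing GPR84, Gαi2-Rluc8, GFP10-Gγ2 and Gβ1 were pre-incubated with compounds 5 min at 37 °C in Tyrode's buffer pH 7.5, then stimulated with 200 nmol/L ZQ-16 for 5 min at room temperature. BRET2 (acceptor/donor ratio) read after 5 μmol/L coelenterazine 400A, background- and vehicle-corrected.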

What is called inhibition is the percentage by which the read-out fell short of the control. By IC50 is commonly meant the concentration that inhibits the measured activity by half. Low values mean higher potency, high ones lower potency.

T1 sequence (Q9NQS5 whole entry): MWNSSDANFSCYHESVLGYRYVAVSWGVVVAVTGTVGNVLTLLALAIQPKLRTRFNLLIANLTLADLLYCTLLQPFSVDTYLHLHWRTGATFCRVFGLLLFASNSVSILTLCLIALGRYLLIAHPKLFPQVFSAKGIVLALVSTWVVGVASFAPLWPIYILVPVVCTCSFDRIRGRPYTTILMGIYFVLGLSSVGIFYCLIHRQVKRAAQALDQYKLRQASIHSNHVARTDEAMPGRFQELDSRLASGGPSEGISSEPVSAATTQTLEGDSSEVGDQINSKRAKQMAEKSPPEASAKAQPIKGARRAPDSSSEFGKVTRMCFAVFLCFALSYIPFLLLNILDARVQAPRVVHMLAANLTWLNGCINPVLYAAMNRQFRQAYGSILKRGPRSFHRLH

In the case of `O=c1nc(OC[C@@H]2COCCO2)cc2n1CCc1cc(C#CC3CC3)ccc1-2` [GLPG1205], in assay [1], the “disease activity index score” value is listed as “reduced” and the neutrophil infiltration result is recorded as “reduced”.
In turn, `Cc1cc(OCC(=O)N2CC[C@@H](C3CC3)C2)cc(=O)n1[C@H](C)c1ccc(C#CC2CC2)cc1` [Compound I-311] yielded an inhibition at 2 µM at human GPR84 receptor above 75%.
Regarding `Cc1cc(OCc2ncccc2C(F)(F)F)cc(=O)n1[C@H](C)c1ccc(C#CC2CC2)cc1` [Compound I-71], on human GPR84 receptor, the IC50 fell in the range of 300 to 1000 nM and the inhibition at 10 µM was above 75%.
Consider `Cc1cc(OCC(=O)N2CC[C@H](S(C)(=O)=O)C2)cc(=O)n1[C@H](C)c1ccc(C#CC2CC2)cc1` [Compound I-253], for which the inhibition at 10 µM on human GPR84 receptor was above 75%.
For `Cc1cc(OCC(=O)N(C)C)cc(=O)n1[C@H](C)c1ccc(C#CC2(C(F)(F)F)CC2)cc1` [Compound I-56], on human GPR84 receptor, the IC50 is at most 300 nM and the inhibition at 10 µM was above 75%.
Turning to `Cc1cc(OCC2OCCC(C)(C)O2)cc(=O)n1[C@H](C)c1ccc(C#CC2CC2)cc1` (stereo partly shown) [Compound I-40], the inhibition at 10 µM on human GPR84 receptor is 25 to 50%.
As to `[2H]C([2H])([2H])N(C(=O)COc1cc(C)n([C@H](C)c2ccc(C#CC3CC3)cc2)c(=O)c1)C([2H])([2H])[2H]` [Compound I-6], at human GPR84 receptor, the IC50 is at most 300 nM and the inhibition at 2 µM was above 75%.
On human GPR84 receptor, `CCN(C)C(=O)COc1cc(C)n([C@H](C)c2ccc(C#CC3CC3)cc2)c(=O)c1` [Compound I-267] showed an IC50 of at most 300 nM and an inhibition at 2 µM above 75%.
Take `Cc1cc(OCC(=O)N(C)C)cc(=O)n1[C@H](C)c1ccc(C#CC2CC2(F)F)c(F)c1` (single isomer, unassigned) [Compound I-84]: the IC50 at human GPR84 receptor was at most 300 nM.
In the case of `Cc1cc(OCC(=O)N(C)C)cc(=O)n1[C@H](C)c1ccc(C#CC2CC2)c(C#N)c1` [Compound I-34], on human GPR84 receptor, the IC50 is at most 300 nM and the inhibition at 2 µM was above 75%.
For `Cc1cc(OCC(=O)N2CC[C@@H](NS(C)(=O)=O)C2)cc(=O)n1[C@H](C)c1ccc(C#CC2CC2)cc1` [Compound I-336], the inhibition at 2 µM on human GPR84 receptor is above 75%.
At human GPR84 receptor, `Cc1cc(OCC(=O)N2CC[C@@H](C(=O)O)C2)cc(=O)n1[C@H](C)c1ccc(C#CC2CC2)cc1` [Compound I-250] registered an IC50 of at most 300 nM and an inhibition at 2 µM above 75%.
For `Cc1cc(OCC(=O)N2CC3(CCC3)C2)cc(=O)n1[C@H](C)c1ccc(C#CC2CC2)cc1` [Compound I-282], in that order: at most 300 nM and above 75%.
On human GPR84 receptor, `Cc1nc(OCC(=O)N(C)C)cc(=O)n1C(C)c1ccc(C#CC2CC2)cc1` (stereo not shown) [Compound I-89] showed an IC50 of at most 300 nM and an inhibition at 2 µM above 75%.
At human GPR84 receptor, `Cc1cc(OCS(N)(=O)=O)cc(=O)n1[C@H](C)c1ccc(C#CC2CC2)cc1` [Compound I-48] yielded an inhibition at 10 µM above 75%.
For `Cc1cc(OCC(=O)N(C)C)cc(=O)n1C(C)c1ccncc1` (stereo not shown) [Compound I-227], the inhibition at 10 µM on human GPR84 receptor was below 25%.
As for `Cc1cc(OCC(=O)N2CCC[C@H]2C(F)(F)F)cc(=O)n1[C@H](C)c1ccc(C#CC2CC2)cc1` [Compound I-255], at human GPR84 receptor, the IC50 is 300 to 1000 nM and the inhibition at 2 µM is above 75%.
Taken in the same sequence, the figures for `CNS(=O)(=O)[C@H]1CCN(C(=O)COc2cc(C)n([C@H](C)c3ccc(C#CC4CC4)cc3)c(=O)c2)C1` [Compound I-322] were 300 to 1000 nM and above 75%.
Taken in the same sequence, the figures for `Cc1cc(OCC(=O)N(C)C)cc(=O)n1[C@H](C)c1ccc(C#CC2CC2)c(F)c1` [Compound I-14] were at most 300 nM and above 75%.
For `Cc1cc(OCC(=O)N2CC(C)(O)C2)cc(=O)n1[C@H](C)c1ccc(C#CC2CC2)cc1` [Compound I-345], on human GPR84 receptor, the IC50 was at most 300 nM and the inhibition at 10 µM is above 75%.
Turning to `Cc1cc(OCC(=O)NC2CC(F)(F)C2)cc(=O)n1[C@H](C)c1ccc(C#CC2CC2)cc1` [Compound I-51], at human GPR84 receptor, the inhibition at 10 µM lay within 50 to 75%.
Same read-out and setting: for `Cc1cc(OCC(=O)N(C)C)cc(=O)n1[C@H](C)c1ccc(C#CC(=O)O)cc1` [Compound I-264] the value was below 25%.
In the case of `Cc1cc(OCC(=O)N(C)C2CCOCC2)cc(=O)n1[C@H](C)c1ccc(C#CC2CC2)cc1` [Compound I-57], at human GPR84 receptor, the IC50 is at most 300 nM and the inhibition at 2 µM was above 75%.
`COC(COc1cc(C)n([C@H](C)c2ccc(C#CC3CC3)cc2)c(=O)c1)C(C)C` (stereo partly shown) [Compound I-275] returned an inhibition at 10 µM on human GPR84 receptor above 75%.
On the same count and under the same terms, the figure for `Cc1cc(OCC(=O)N2CC3(CCN(C)CC3)C2)cc(=O)n1[C@H](C)c1ccc(C#CC2CC2)cc1` [Compound I-79] is above 75%; for `Cc1cc(OCc2cnc(C3CC3)cn2)cc(=O)n1C(C)c1ccc(OCC2CCCCO2)c(F)c1` (stereo not shown) [Compound I-13] it is below 25%.
For `Cc1cc(OCC(=O)N2CC3CCC2CO3)cc(=O)n1[C@H](C)c1ccc(C#CC2CC2)cc1` (stereo partly shown) [Compound I-326], at human GPR84 receptor, the IC50 was 1000 to 3000 nM and the inhibition at 10 µM is above 75%.
Molecule `Cc1cc(OCc2ncccn2)cc(=O)n1[C@H](C)c1ccc(C#CC2(C(F)(F)F)CC2)c(F)c1` [Compound I-53] gave an inhibition at 10 µM on human GPR84 receptor of 50 to 75%.
The molecule `Cc1cc(OCC2(N(C)C)COC2)cc(=O)n1[C@H](C)c1ccc(C#CC2CC2)c(F)c1` [Compound I-19] came in with an inhibition at 10 µM on human GPR84 receptor of 50 to 75%.
On human GPR84 receptor, `Cc1cc(OCC(=O)N2CC[C@@H](C#N)C2)cc(=O)n1[C@H](C)c1ccc(C#CC2CC2)cc1` [Compound I-309] came in with an IC50 of at most 300 nM and an inhibition at 2 µM above 75%.
At human GPR84 receptor, `Cc1cc(OCC(=O)N2CC[C@H](N(C)S(C)(=O)=O)C2)cc(=O)n1[C@H](C)c1ccc(C#CC2CC2)cc1` [Compound I-337] had an inhibition at 10 µM above 75%.
Turning to `COc1cccc([C@H](C)n2c(C)cc(C#CC3CC3)cc2=O)c1` [Compound I-238], the inhibition at 2 µM on human GPR84 receptor was below 25%.
For `Cc1cc(OCc2ncccn2)cc(=O)n1[C@H](C)c1ccc(OC(C)C)cc1` [Compound I-129], the inhibition at 10 µM on human GPR84 receptor was below 25%.
Consider `CNS(=O)(=O)C1CN(C(=O)COc2cc(C)n([C@H](C)c3ccc(C#CC4CC4)cc3)c(=O)c2)C1` [Compound I-323], for which, at human GPR84 receptor, the 50% inhibitory concentration (IC50) was at most 300 nM and the inhibition at 2 µM is above 75%.
At human GPR84 receptor, `Cc1cc(OCC(=O)N(C)C2CC(F)(F)C2)cc(=O)n1[C@H](C)c1ccc(C#CC2CC2)cc1` [Compound I-67] registered an IC50 of 300 to 1000 nM and an inhibition at 10 µM above 75%.
For `Cc1cc(OCC(=O)N(C)C)cc(=O)n1C(C)c1ccccn1` (stereo not shown) [Compound I-225], the inhibition at 10 µM at human GPR84 receptor was below 25%.
Still for that read-out and setting: the figure for `Cc1cc(OCC(=O)N(C)C)cc(=O)n1[C@H](C)c1ccc(C#CC2CC2)c(N(C)C)c1` [Compound I-38] is above 75%.
Regarding `Cc1cc(OCC(O)C(C)(C)C)cc(=O)n1[C@H](C)c1ccc(C#CC2CC2)cc1` (stereo partly shown) [Compound I-276], at human GPR84 receptor, the IC50 lay in the range of 300 to 1000 nM and the inhibition at 10 µM was above 75%.
With `Cc1cc(OCc2nncn2C)cc(=O)n1[C@H](C)c1ccc(C#CC2CC2)cc1` [Compound I-330], at human GPR84 receptor, the IC50 is at most 300 nM and the inhibition at 2 µM is above 75%.
For `Cc1cc(OCC(=O)N(C)C)cc(=O)n1[C@H](C)c1ccc(C#CC2CC2(F)F)c(F)c1` (single isomer, unassigned) [Compound I-83], in that order: at most 300 nM and above 75%.
For `Cc1cc(OCc2ncnn2C)cc(=O)n1[C@H](C)c1ccc(C#CC2CC2)cc1` [Compound I-329], in that order: at most 300 nM and above 75%.
On human GPR84 receptor, `Cc1cc(OCC(=O)N2CC3C(C2)C3(C)C)cc(=O)n1[C@H](C)c1ccc(C#CC2CC2)cc1` (stereo partly shown) [Compound I-285] came in with an IC50 of 300 to 1000 nM and an inhibition at 10 µM above 75%.
`Cc1cc(OCC(=O)NC2CNC2)cc(=O)n1[C@H](C)c1ccc(C#CC2CC2)cc1` [Compound I-69] had an inhibition at 10 µM on human GPR84 receptor of 25 to 50%.
For the molecule `Cc1cc(OCC(=O)N2CC[C@H](C(=O)O)[C@H]2C)cc(=O)n1[C@H](C)c1ccc(C#CC2CC2)cc1` [Compound I-304], on human GPR84 receptor, the IC50 is at most 300 nM and the inhibition at 10 µM was above 75%.
For `Cc1cc(OCC(=O)N2CCCC2)cc(=O)n1[C@H](C)c1ccc(C#CC2CC2)cc1` [Compound I-2], on human GPR84 receptor, the IC50 is at most 300 nM and the inhibition at 2 µM was above 75%.

(Values after patent US20260055117A1, “SUBSTITUTED PYRIDONE GPR84 ANTAGONISTS AND USES THEREOF” (Liminal BioSciences Limited, priority 2022, published 2026).)
